Tests used:
[1] = test system: cardiomyocyte cell line H9C2; assay: Cytotoxicity assay, H9C2 cells; type: cell-based; settings: rat cardiomyocyte cell line H9C2
SW480 cells = assay: Cytotoxicity assay, CellTiter-Glo 2.0, SW480 cells; type: cell-based; settings: SW480, human colon cancer cell line expressing kRAS G12V; 48 hours
Description: FIG. 2, panels A-B, illustrate the cytotoxicity of Structure 2 and Structure 3 on SW480 cells. The cytotoxicity of compounds of interest was tested against the human colon cancer cell line SW480 as described in the experimental section. SW480 cells express a mutant G12V kRAS. Compounds were incubated with cells for 48 hours and the assay was developed using Cell Titer Glo 2.0. IC50 vales were determined using GraphPad Prism 4.
(§1) Compounds were assayed for inhibition of cell proliferation and killing cancer cells. Cytotoxicity assays were conducted according to the following general procedure. SW480, SW48, SW900, SW620 were all maintained in Leibowitz L15 media supplemented with 10% fetal bovine serum and 1% PenStrep and grown in a 37° C. incubator without supplemental CO2. Capan-1 cells were maintained in Iscove's Modified Dulbecco's Medium (ATCC 30-2005) containing 20% fetal bovine serum and 1% PenStrep and grown in a 37° C. incubator containing 5% CO2.
(§2) For dose-response assays, SW480 cells were plated into 96 well plates (1 million/plate, ˜10,000/well, 250 μL media/well). Cells were allowed to settle and adhere to plate bottom overnight Compounds were placed in 500 μL media and mixed. Then 250 μL compounds+media was placed in an intermediate plate in row A. Rows B through H were filled with 125 μL media. […] Luminescence was read with FLx800 (BioTek Instruments).

SW620 cells = assay: Cytotoxicity assay, CellTiter-Glo 2.0, SW620 cells; type: cell-based; settings: SW-620; SW620, human colon cancer cell line expressing mutant G12V kRAS; 48 hours
Description: FIG. 6, panels A-B, illustrate the cytotoxicity of Structure 2 and Structure 3 on SW620 Cells. The cytotoxicity of compounds of interest were tested against the human colon cancer cell line SW620 as described in the experimental section. SW620 cells express a mutant G12V kRAS. Compounds were incubated with cells for 48 hours and the assay was developed using Cell Titer Glo 2.0. IC50 values were determined using GraphPad Prism4.
as §1, §2

HT-1080 cells = assay: Cell morphology assay; type: cell-based, human; settings: 24 hours, 1.2-100 μM, Alexa Fluor 488 Phalloidin
Description: FIG. 7, panels A-F, illustrate the effect of an exemplary compound of Structure 2 on the HT-1080 cells in a cell morphology assay. Effect of Structure 2 on the HT-1080 cells in cell morphology assay. HT1080 cells were seeded in 6-well plates at 300,000 per plate, incubated overnight and various amounts of Structure 2 (compound 1) in the DMSO vehicle or vehicle control added. After 24 hours, cells were washed, fixed with formaldehyde, stained with Alexa Fluor 488 Phalloidin and imaged using a fluorescence microscope. […]
An assay was performed (see e.g., Kato-Stankiewicz et al., Inhibitors of RAS/Raf-1 interaction identified by two-hybrid screening revert RAS-dependent transformation phenotypes in human cancer cells. Proc Natl Acad Sci USA. 2002; 99: 14398-403) to evaluate the ability of an inhibitor to dampen the RAS/RAF/MEK/ERK pathway and provide a reversion of cell appearance from a rounded to a flat, elongated morphology (Paterson et al., Activated nRAS controls the transformed phenotype of HT1080 human fibrosarcoma cells. Cell. 1987 Dec. 4; 51 (5):803-12). […] Cells were then washed 2 times with PBS and imaged using a Zeiss Axiovert 25 fluorescence microscope.

SW900 cells = assay: Cytotoxicity assay, CellTiter-Glo 2.0, SW900 cells; type: cell-based; settings: SW900, human lung cancer cell expressing kRAS G12V; 48 hours
Description: FIG. 4, panels A-B, illustrates the cytotoxicity of Structure 2 and Structure 3 on SW900 cells. The cytotoxicity of compounds of interest were tested against the human lung cancer cell line SW900 as described in the experimental section. SW900 cells express a G12V mutant kRAS. Compounds were incubated with cells for 48 hours and the assay was developed using Cell Titer Glo 2.0. IC50 vales were determined using GraphPad Prism 4.
as §1, §2

[2] = Pharmacokinetic study in mice; type: in vivo; settings: ip, 3 mg/kg, CD-1 mice, 3 mg/kg
Description: Pharmacokinetic studies were carried out using 10 weeks old CD-1 mice. Structure 2 and Structure 3 were injected ip, 3 mg/kg and 10 mg/kg, respectively, at 8 time points (0, 0.25, 0.5, 1, 2, 4, 8 and 24 hours post-dose). Blood was collected from 3 animals/time point and concentrations of Structure 2 in plasma determined using LC/MS.

A431 = assay: Cytotoxicity assay, A431 cells; type: cell-based; settings: A431, human epidermoid carcinoma cell line expressing wild type kRAS
Description: as §1

HT29 = assay: Cytotoxicity assay, HT29 cells; type: cell-based; settings: human colon cancer cell line HT29
Description: as §1

## Cc1nc(-c2ccc(CNC(=O)c3cc(CC(C)C)nn3C)cc2)no1 [Structure 2, 3-isobutyl-1-methyl-N-(4-(5-methyl-1,2,4-oxadiazol-3-yl)benzyl)-1H-pyrazole-5-carboxamide]
[1]
  not cytotoxic at concentrations up to: > 40 µM
SW480 cells
  IC50: 232 nM
SW620 cells
  IC50: 55 nM
HT-1080 cells
  reversion of cell phenotype (morphology): produced reversion of cell phenotype from the rounded to the flatter more elongated morphology
SW900 cells
  IC50: 351 nM
[2]; CD-1, mouse, plasma, plasma, read-out: Vz/F
  Vd/F: 0.532 L/kg
[2]
  mean resident times (MRT): approximately one to two
[2]; plasma
  AUCINF: 10.92 (Microgram * Hour)/mL
  AUC_%Extrap: 1.92%
  AUClast: 10.71 (Microgram * Hour)/mL
  CI/F: 4.58 mL/min/kg
  Concentrationmax: 5.74 Microgram/mL
  Lambda_z: 0.53 h⁻¹
  MRTINF: 2.15 h
  MRTlast: 2.00 h
  Timelast: 8.00 h
[2]; mouse, plasma, read-out: Concentrationlast
  concentration at 8 Hour: 110 ng/mL
A431
  not cytotoxic at concentrations up to: > 40 µM
HT29
  not cytotoxic at concentrations up to: > 40 µM
